Measured values taken from ChEMBL document CHEMBL1201862, “PubChem BioAssay data set” (2004).
Calls of active or inactive are those of the source.

Experiments:
[1] = blockers of HIV-1 ZM109 envelope-driven cell-cell fusion – HeLa effector, CEM target cells, luciferase, cherry-pick, dose response (AID 652058); type: functional, cell-based;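 further: luciferase signal from HIV-1 Env mediated cell-cell fusion of effector and target cells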
[2] = blockers of HIV-1 envelope-mediated cell-cell fusion – cherry-pick, dose response (AID 652057); type: functional, cell-based
Interleukin-8 = Interleukin-8 (Homo sapiens, UniProt P10145); experiment: Dose Response confirmation of uHTS small molecule hits for cystic fibrosis induced NFkb Inhibitors in a PAF-induced IL8 counterscreen.; type: functional; conditions: read-out: IC50_Mean
Interleukin-8, sequence (P10145 whole entry, the tested form may be a part): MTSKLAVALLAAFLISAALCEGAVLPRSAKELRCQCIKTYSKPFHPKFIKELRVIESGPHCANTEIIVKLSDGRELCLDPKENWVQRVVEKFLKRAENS

[3] = HIV-1 AD8 envelope cell-cell fusion blockers – cherry-pick, dose response (AID 652062); type: functional, cell-based;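 further: luciferase signal from cell-cell fusion driven by HIV-1 clade B AD8 Env; potency is for inhibitors of fusion seen as a drop in luminescence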
[4] = off-target signal loss in HeLa-CEM21 co-culture – HeLa F-luc CTL cells, cherry-picked, counter-screen for HIV-1 Env fusion inhibitor project, dose response (AID 652040); type: functional, cell-based;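 further: potency for signal decrease marking cytotoxic or nonspecific inhibition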
Large T antigen = Large T antigen (Simian virus 40, UniProt P03070); type: functional, Betapolyomavirus macacae;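 further: Confirmatory-stage PubChem screen for compounds that inhibit SV40 T antigen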
Large T antigen, sequence (P03070 whole entry): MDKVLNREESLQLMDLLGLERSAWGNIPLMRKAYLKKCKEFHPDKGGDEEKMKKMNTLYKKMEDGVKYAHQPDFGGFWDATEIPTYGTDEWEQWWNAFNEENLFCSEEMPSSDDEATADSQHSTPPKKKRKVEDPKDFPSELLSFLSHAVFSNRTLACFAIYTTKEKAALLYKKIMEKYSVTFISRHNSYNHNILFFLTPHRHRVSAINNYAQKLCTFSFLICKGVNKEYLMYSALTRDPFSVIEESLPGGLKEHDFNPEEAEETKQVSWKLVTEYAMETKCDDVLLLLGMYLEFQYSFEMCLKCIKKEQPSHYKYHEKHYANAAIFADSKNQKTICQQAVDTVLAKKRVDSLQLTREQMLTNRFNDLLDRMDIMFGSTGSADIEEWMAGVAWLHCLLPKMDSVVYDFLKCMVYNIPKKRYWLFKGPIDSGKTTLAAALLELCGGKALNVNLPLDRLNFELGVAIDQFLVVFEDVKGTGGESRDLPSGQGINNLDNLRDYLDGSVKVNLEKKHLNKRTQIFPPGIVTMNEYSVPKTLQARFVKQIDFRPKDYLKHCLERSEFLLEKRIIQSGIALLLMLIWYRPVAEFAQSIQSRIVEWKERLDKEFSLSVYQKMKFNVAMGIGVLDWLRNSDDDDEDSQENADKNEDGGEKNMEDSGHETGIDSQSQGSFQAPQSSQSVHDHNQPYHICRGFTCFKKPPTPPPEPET

Protein Tat = Protein Tat (Human immunodeficiency virus type 1 group M subtype B (isolate HXB2)(HIV-1), UniProt P04608); type: functional;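 further: tat binding to TAR RNA read out by fluorescence polarization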
Protein Tat, sequence (P04608 whole entry): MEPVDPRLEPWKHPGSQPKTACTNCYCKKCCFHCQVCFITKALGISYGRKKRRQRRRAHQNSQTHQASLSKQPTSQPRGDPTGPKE

Galanin receptor type 3 = Galanin receptor type 3 (Homo sapiens, UniProt O60755); experiment: Fluorescence-based cell-based primary high throughput dose response assay to identify antagonists of the Galanin Receptor 3 (GalR3).; type: functional
Galanin receptor type 3, sequence (O60755 whole entry): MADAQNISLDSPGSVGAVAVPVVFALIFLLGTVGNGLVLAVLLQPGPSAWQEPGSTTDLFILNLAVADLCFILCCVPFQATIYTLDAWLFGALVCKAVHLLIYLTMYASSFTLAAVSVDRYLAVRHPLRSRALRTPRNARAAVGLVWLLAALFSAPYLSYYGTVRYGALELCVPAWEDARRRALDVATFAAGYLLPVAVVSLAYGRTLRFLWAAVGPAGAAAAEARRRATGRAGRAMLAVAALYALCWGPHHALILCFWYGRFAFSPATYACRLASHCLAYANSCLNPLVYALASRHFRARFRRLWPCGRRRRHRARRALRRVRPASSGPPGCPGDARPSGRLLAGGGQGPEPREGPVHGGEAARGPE

cells = type: functional, cell-based; conditions: HEK-CNG
H9c2 = experiment: cells; type: functional, cell-based; conditions: Rattus norvegicus, H9c2, Myocardium;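 further: confirmatory concentration-response retest of ultra-high-throughput screening hits for modulation of myocardial damage; cell death induced by hydrogen peroxide oxidative stress; compound pretreatment for 60 min then peroxide exposure for 2 h; potency is for protecting the cells against peroxide damage rather than for killing them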
[5] = target: T1, Long-chain-fatty-acid--AMP ligase FadD28 (Mycobacterium tuberculosis, UniProt P9WQ59); experiment: Fluorescence polarization aasay to screen for inhibitors that compete for the binding of FadD28 to a bisubstrate Measured in Biochemical System Using Plate Reader - 2147-01_Inhibitor_Dose_CherryPick_Activity.; type: functional, Mycobacterium tuberculosis H37Rv
T1 sequence (P9WQ59 whole entry): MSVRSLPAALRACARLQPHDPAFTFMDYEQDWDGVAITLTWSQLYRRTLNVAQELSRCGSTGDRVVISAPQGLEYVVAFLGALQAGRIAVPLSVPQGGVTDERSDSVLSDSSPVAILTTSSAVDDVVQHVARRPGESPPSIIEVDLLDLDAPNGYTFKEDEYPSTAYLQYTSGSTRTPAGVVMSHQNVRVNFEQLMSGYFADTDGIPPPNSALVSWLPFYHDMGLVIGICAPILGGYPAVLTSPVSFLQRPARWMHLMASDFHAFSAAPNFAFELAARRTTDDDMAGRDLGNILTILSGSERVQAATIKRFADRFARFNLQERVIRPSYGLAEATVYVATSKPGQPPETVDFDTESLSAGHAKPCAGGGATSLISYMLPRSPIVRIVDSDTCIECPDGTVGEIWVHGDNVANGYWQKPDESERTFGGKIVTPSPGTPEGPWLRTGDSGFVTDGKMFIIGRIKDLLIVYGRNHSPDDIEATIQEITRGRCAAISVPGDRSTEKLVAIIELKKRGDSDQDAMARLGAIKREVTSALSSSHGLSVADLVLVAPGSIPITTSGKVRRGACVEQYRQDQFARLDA

[6] = HGIII-sPLA2 enzyme inhibition potency – biochemical, QFRET, IC50, dose response (AID 743457);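 further: green fluorescence rise as the enzyme cleaves BODIPY PC-A2 in liposomes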
[7] = target: T2, Oxysterols receptor LXR-beta (Homo sapiens, UniProt P55055); type: functional, cell-based;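 further: agonist activity at LXR measured by a cell-based luminescence readout across a dose range, run as a counterscreen for daf-12 agonists; HEK293 cells with Gal4-LXR fusion and GAL4-driven luciferase reporter; potency for activation of Gal4-LXR reporter so compounds are agonists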
T2 sequence (P55055 whole entry): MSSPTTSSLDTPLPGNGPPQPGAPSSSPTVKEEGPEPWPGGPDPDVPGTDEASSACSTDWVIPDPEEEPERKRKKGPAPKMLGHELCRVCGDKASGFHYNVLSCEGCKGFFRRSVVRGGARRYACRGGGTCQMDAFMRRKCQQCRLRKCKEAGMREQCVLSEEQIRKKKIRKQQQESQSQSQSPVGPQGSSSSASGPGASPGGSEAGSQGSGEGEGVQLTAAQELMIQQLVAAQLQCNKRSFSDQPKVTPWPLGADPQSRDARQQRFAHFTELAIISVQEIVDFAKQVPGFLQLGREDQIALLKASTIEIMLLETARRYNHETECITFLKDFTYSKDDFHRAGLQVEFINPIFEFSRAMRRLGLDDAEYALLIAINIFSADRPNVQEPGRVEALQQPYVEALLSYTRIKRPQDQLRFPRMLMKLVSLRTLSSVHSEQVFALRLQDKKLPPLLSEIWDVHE

[8] = NIH3T3 cell viability loss – ATP luminescence, mouse fibroblasts, counter-screen, dose response (AID 2010); type: functional, cell-based;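 further: cells exposed to compound for about 90 hours before reading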
[9] = target: T3, Sentrin-specific protease 8 (Homo sapiens, UniProt Q96LD8); type: functional
T3 sequence (Q96LD8 whole entry): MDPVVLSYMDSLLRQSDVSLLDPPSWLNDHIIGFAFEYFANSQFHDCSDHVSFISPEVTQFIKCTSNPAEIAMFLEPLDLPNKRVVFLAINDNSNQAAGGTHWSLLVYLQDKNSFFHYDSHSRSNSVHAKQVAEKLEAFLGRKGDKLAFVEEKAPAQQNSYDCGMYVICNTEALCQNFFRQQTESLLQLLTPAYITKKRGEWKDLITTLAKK

[10] = HEK-293T cell viability reduction – luminescence, B-cell screen hits, cytotoxicity control for BCR NF-kB inhibitor project, dose response (AID 489021); type: functional, cell-based;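 further: HEK-293T cells carrying an NF-kB luciferase reporter; cells exposed to compound for about 14 hours before viability readout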
[11] = Trypanosoma cruzi growth suppression in host cells – NIH3T3 host cells, beta-gal luminescence, confirmation (AID 2044); type: functional, cell-based;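 further: intracellular parasites grown in NIH/3T3 mouse fibroblasts as host cells; luminescent beta-galactosidase reporter signal from transgenic T. cruzi replicating inside host cells; inhibitors lower the luminescence signal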
[12] = target: T3, Sentrin-specific protease 8; type: functional; remark: listed apart in the source
[13] = viability of PTEN-deleted HCT116 cells – cell-based, HCT116 PTEN knockout, dose response (AID 1047); type: functional;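 further: HCT116 colon tumor cells with PTEN knocked out; cells exposed to compound for 60 hours before readout; potency for loss of cell viability measured by luminescence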
[14] = viability of HCT116 lacking mutant beta-catenin – cell-based, human colon tumor, dose response (AID 1045); type: functional;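 further: HCT116 colon tumor cells with beta catenin knocked out; cells exposed to compound for 60 hours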
[15] = target: T4, Probable nicotinate-nucleotide adenylyltransferase (Staphylococcus aureus (strain N315), UniProt P65502); type: functional, Staphylococcus aureus subsp. aureus N315; conditions: read-out: IC50_Mean;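 on IC50 Mean: confirmatory dose-response retesting of NadD inhibitor hits first found in an ultra-high-throughput screen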
T4 sequence (P65502 whole entry): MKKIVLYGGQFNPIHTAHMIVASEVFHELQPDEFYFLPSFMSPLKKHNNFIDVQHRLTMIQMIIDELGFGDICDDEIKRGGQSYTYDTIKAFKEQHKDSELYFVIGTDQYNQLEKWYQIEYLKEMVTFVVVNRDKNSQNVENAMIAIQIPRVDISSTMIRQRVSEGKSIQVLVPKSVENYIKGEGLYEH

[16] = target: T4, Probable nicotinate-nucleotide adenylyltransferase; type: functional, Staphylococcus aureus subsp. aureus N315
HEK293 = experiment: EBV LMP1 TES2 canonical NF-kB signalling blockers – cell-based, HEK293, luciferase, cherry-pick, dose response (AID 588343); type: functional; conditions: Homo sapiens
[17] = target: T5, Methionyl-tRNA synthetase, putative (Trypanosoma brucei brucei, UniProt Q38C91); type: functional, Trypanosoma brucei brucei strain 927/4 GUTat10.1
T5 sequence (Q38C91 whole entry): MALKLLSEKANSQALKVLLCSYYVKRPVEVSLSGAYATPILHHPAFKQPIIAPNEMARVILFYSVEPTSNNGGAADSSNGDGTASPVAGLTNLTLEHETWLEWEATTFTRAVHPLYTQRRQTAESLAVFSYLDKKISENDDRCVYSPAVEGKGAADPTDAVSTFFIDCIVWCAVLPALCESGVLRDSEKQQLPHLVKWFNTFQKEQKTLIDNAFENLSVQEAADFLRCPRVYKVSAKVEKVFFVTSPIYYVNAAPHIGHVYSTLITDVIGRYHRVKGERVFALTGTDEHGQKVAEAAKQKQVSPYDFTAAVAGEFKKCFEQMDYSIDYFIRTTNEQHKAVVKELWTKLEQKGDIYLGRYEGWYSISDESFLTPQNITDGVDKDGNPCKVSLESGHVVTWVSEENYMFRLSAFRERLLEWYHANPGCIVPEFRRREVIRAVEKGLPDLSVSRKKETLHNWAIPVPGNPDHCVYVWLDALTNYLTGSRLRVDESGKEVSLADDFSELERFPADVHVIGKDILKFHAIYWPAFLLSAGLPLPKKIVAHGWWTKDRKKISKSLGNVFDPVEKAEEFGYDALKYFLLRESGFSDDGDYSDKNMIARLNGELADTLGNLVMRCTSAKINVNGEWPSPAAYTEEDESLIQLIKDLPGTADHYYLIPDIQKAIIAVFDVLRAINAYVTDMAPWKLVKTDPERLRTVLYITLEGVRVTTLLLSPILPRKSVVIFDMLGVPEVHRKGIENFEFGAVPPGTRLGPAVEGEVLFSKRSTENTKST

[18] = Counterscreen for inhibitors of Trypanosoma brucei methionyl tRNA synthetase (MetRS): Luminescence-based cell-based high throughput dose response assay to identify compounds that are cytotoxic to Jurkat human T lymphocyte cells.; type: functional
[19] = target: T5, Methionyl-tRNA synthetase, putative; type: functional, Trypanosoma brucei brucei strain 927/4 GUTat10.1; remark: listed apart in the source

Structure (SMILES): COc1ccc(C2=Nn3c(nnc3-c3ccncc3)SC2)cc1
- AC50 [1]: 1.13 µM (active)
- AC50 [2]: 2.02 µM (active)
- IC50 (Interleukin-8): 40.8 µM (inactive)
- AC50 [3]: 1.03 µM (active)
- AC50 [4]: 2.34 µM (active)

Structure (SMILES): O=C(CN1CCN(S(=O)(=O)c2ccc(F)cc2)CC1)c1ccc(O)c(O)c1
- IC50 (Large T antigen): 6.55 µM (active)
- IC50 (Protein Tat): > 100 µM (active)

Structure (SMILES): CNC(=O)NC(=O)CSc1nnc(-c2ccc(F)cc2)n1CC1CCCO1 (centres undefined)
- IC50 (Galanin receptor type 3): > 29.9 µM (inactive)
- EC50 (cells): > 29.9 µM (inactive)

Structure (SMILES): CCOC(=O)N1CCN(S(=O)(=O)c2ccc(C(=O)NNc3nc4c(C)cccc4s3)cc2)CC1
- IC50 (H9c2): 14.2 µM (active)
- AC50 [5]: 22.1 µM (active)
- IC50 [6]: 25.9 µM (inactive)

Structure (SMILES): Cc1ccc2nc(-c3ccccn3)oc2c1
- EC50 [7]: > 67.6 µM (inactive)

Structure (SMILES): CCc1ccc(/C=C(/C#N)C(N)=S)cc1
- IC50 [6]: > 122 µM (inactive)

Structure (SMILES): Cc1ccc(Sc2cc(NCCCO)c([N+](=O)[O-])c3nonc23)cc1
- EC50 [8]: > 60 µM (not active)
- IC50 [9]: 18.1 µM (active)
- IC50 [10]: > 80 µM (inactive)
- EC50 [11]: 2.2 µM (active)
- IC50 [12]: 23.3 µM (active)

Structure (SMILES): O=C(NC(=S)Nc1cc(-c2nc3ccccc3[nH]2)ccc1Cl)c1ccc2c(c1)OCO2
- EC50 [13]: 1.53 µM (active)
- EC50 [14]: 2.23 µM (active)
- IC50 [15]: 58.9 µM (active)
- IC50 [16]: 21.1 µM (active)

Structure (SMILES): Cc1cccc(Nc2[nH]nc(C)c2[N+](=O)[O-])c1
- EC50 [7]: > 67.5 µM (inactive)

Structure (SMILES): CC(=O)c1c(C)n(C2CCCCC2)c2ccc(O)cc12
- AC50 (HEK293): 3.23 µM (active)
- IC50 (Interleukin-8): > 79 µM (inactive)

Structure (SMILES): COc1ccc(CNC(=O)CSc2n[nH]c3c4ccccc4nc-3n2)cc1
- IC50 [17]: 4.39 µM (active)
- IC50 [18]: 83.3 µM (inactive)
- IC50 [19]: 1.54 µM (active)
